Reference: PMC6522510 (Nature Communications, 2019)
Where two headings read alike, the source gives them in different places.

How the values were obtained:
Set-up in all cases: species or system AML cell lines (8); Primary HTS, single concentration about 10 uM, Cell Titer Glo viability; log10 luminescence, per cent inhibition relative to cycloheximide control
Settings in all cases: 72 h, relative to cycloheximide control, log10 luminescence, inhibitor
CHRF288-11 = system: CHRF288-11
CMK = system: CMK
CMS = system: CMS
M07e = system: M07e
ML-2 = system: ML-2
MOLM-13 = system: MOLM-13
MV4-11 = system: MV4-11
U937 = system: U937

SMILES	CHRF288-11 %inh (CHRF288-11) [%]	CMK %inh (CMK) [%]	CMS %inh (CMS) [%]	M07e %inh (M07e) [%]	ML-2 %inh (ML-2) [%]	MOLM-13 %inh (MOLM-13) [%]	MV4-11 %inh (MV4-11) [%]	U937 %inh (U937) [%]	CHRF288-11 %inh (CHRF288-11; CHRF288-11 %inh, 10 µM) [%]	CMK %inh (CMK; CMK %inh, 10 µM) [%]	CMS %inh (CMS; CMS %inh, 10 µM) [%]	M07e %inh (M07e; M07e %inh, 10 µM) [%]	ML-2 %inh (ML-2; ML-2 %inh, 10 µM) [%]	MOLM-13 %inh (MOLM-13; MOLM-13 %inh, 10 µM) [%]	MV4-11 %inh (MV4-11; MV4-11 %inh, 10 µM) [%]	U937 %inh (U937; U937 %inh, 10 µM) [%]
Oc1c(Cl)cc(Cl)c2cccnc12 [SJ000285324-3, CHLOROXINE]	73.25	45.1	2.824	20.56	49.1	6.345	77.67	23.85	–	–	–	–	–	–	–	–
CC(C)(Oc1ccc(Cl)cc1)C(=O)O [SJ000285361-4, CLOFIBRIC ACID]	12.15	-0.9561	10.42	1.241	4.873	6.685	17.98	12.99	–	–	–	–	–	–	–	–
COc1ccc(Cl)cc1C(=O)NCCc1ccc(S(=O)(=O)NC(=O)NC2CCCCC2)cc1 [SJ000285391-7, GLYBURIDE | GLIBENCLAMIDE]	12.75	-6.568	-0.9752	3.672	1.589	3.373	0.5716	0.5073	–	–	–	–	–	–	–	–
CCC1(C)CC(=O)NC1=O (stereo not shown) [SJ000285397-7, ETHOSUXIMIDE]	0.04293	-1.781	-0.558	-0.04938	3.243	28.73	-0.6847	0.5757	–	–	–	–	–	–	–	–
O=C1CCc2cc(OCCCCc3nnnn3C3CCCCC3)ccc2N1 [SJ000285433-6, CILOSTAZOL]	-1.23	3.033	1.219	4.292	-1.307	2.454	1.479	-1.919	–	–	–	–	–	–	–	–
COCCOC(=O)C1=C(C)NC(C)=C(C(=O)OC(C)C)C1c1cccc([N+](=O)[O-])c1 (stereo not shown) [SJ000285435-8, NIMODIPINE]	–	–	–	–	–	–	–	–	5.054	-2.491	-0.4109	-0.8371	3.664	3.286	7.361	6.247
COCCOC(=O)C1=C(C)NC(C)=C(C(=O)OC(C)C)C1c1cccc([N+](=O)[O-])c1 (stereo not shown) [SJ000285435-9, NIMODIPINE]	–	–	–	–	–	–	–	–	6.868	3.053	-2.02	0.4803	2.121	3.201	8.576	7.911
COCCOC(=O)C1=C(C)NC(C)=C(C(=O)OC(C)C)C1c1cccc([N+](=O)[O-])c1 (stereo not shown) [SJ000285435-10, NIMODIPINE]	–	–	–	–	–	–	–	–	10.94	2.191	10.67	6.293	3.623	3.657	10.46	7.013
CC1=Nc2ccc(Cl)cc2S(=O)(=O)N1 [SJ000285438-7, DIAZOXIDE]	3.174	-0.09563	-4.011	-1.23	-2.212	13.73	-7.128	2.608	–	–	–	–	–	–	–	–
COc1ccc2cc(CCC(C)=O)ccc2c1 [SJ000285475-3, NABUMETONE]	–	–	–	–	–	–	–	–	-3.141	0.8703	0.5932	3.981	2.121	0.1221	0.7976	-2.289
COc1ccc2cc(CCC(C)=O)ccc2c1 [SJ000285475-4, NABUMETONE]	–	–	–	–	–	–	–	–	-4.035	3.657	-2.394	-0.5005	1.434	3.416	-0.967	0.6601
